Laboratory results reported in patent publication US5466716A, “Liposomal trimethylsphingosine” (The Biomembrane Institute, priority 1994, dated 1995).
“Also recorded” adds a separate entry of the source.

Assays:
[1] = test system: platelets; experiment: platelet aggregation; type: cell-based, human
Method: FIGS. 7A and 7B depict the effect of N,N,N-trimethylsphingosine (TMS) on platelet aggregation. A 0.45 ml aliquot of human platelet suspension (3-5×10^5 platelets per μl of Tyrode's buffer) was incubated with sphingosine or TMS for 2 minutes. Then platelet aggregation was induced by the addition of either γ-thrombin (FIG. 7A) or adenosine diphosphate (ADP) (FIG. 7B) in 0.05 ml. The degree of aggregation was determined in an aggregometer and the data analyzed with an integrated computer (Kyoto Daiichi Kagaku Co. Ltd.).
FIG. 8 depicts further the dose response of platelet aggregation by sphingoid. Aggregation of the platelets was induced with 10 nM γ-thrombin.
Platelets were isolated from platelet-rich plasma (purchased from the Oregon Red Cross, Portland, Oreg. Contaminating erythrocytes were removed by centrifugation (80×g for 10 minutes). Platelets were obtained by centrifugation (300×g for 10 minutes), washed once in Tyrodes's buffer (pH 6.5) containing 22 mM trisodium citrate and 0.35% (w/v) BSA and resuspended in the same buffer to obtain a concentration of 1-2×10^9 platelets/ml. All procedures were performed at room temperature.
A suspension of platelets (3.5×10^8 /ml) in Tyrode's buffer was preincubated with various inhibitor compounds (H-7 is [1-(5-isoquinolinylsulfonyl)-2-methylpiperazine, a synthetic protein kinase-C inhibitor purchased from Seikagaku America Inc., St. Petersburg, Fla.], calphostin-C [a synthetic protein kinase-C inhibitor obtained from Dr. Saitoh, Kyowa Hakko Co., Ltd., Machida, Tokyo, Japan], sphingosine [purchased from Sigma, St. Louis, Mo.] and dimethylsphingosine and trimethylsphingosine [synthesized according to Igarashi et al., Biochem., 28, 6796, 1989]) followed by addition of thrombin or ADP (both purchased from Sigma). Platelet aggregation was evaluated by transmittance change using an aggregometer (Chrono-log Corp., Havertown, Pa.) equipped with a computer analyzer.

[2] = test system: BL6 melanoma cells; experiment: melanoma BL6 cell proliferation (thymidine incorporation); type: cell-based; conditions: BL6, FIG. 5A
Excerpt: FIGS. 5A and 5B depict the effect of N,N,N-trimethylsphingosine (open circles), N,N-dimethylsphingosine (solid circles) and sphingosine (open squares) on two melanoma cell lines, BL6, a highly malignant cell line (in FIG. 5A) and F1, a cell line of low malignancy, (in FIG. 5B). Cell proliferation was evidenced by tritiated thymidine incorporation into DNA.
An in vitro assay relying on tritiated thymidine incorporation can be used to ascertain the effect of various compounds on cell proliferation. Briefly, tumor cells are seeded in flat bottom 96 well plates (Corning, N.Y.) at a concentration of 2×10^4 cells per well. The cells are cultured for 2 days in DMEM containing various concentrations of sphingoid, which is added as a PBS solution. The medium then is supplemented with tritiated thymidine at a concentration of 0.5 μCi per well. Following a six hour incubation the cells are collected using the PHD Cell Harvester (Cambridge Technology, Cambridge, Mass.) and amounts of incorporated radioactivity are determined after adding a suitable cell lysing agent and scintillation cocktail, such as ScintiVerse BD (Fisher Scientific, Fairlawn, Calif.) which performs both functions.
Certain cancer cells show a higher metastatic potential and invasive capability than others. For example the BL6 and F10 melanoma cell lines are highly metastatic and invasive. […]

[3] = test system: BL6 cells; experiment: BL6 lung metastatic deposits in mice; type: in vivo
Excerpt: FIGS. 6A-C depict the effect of N,N,N-trimethylsphingosine on lung metastatic deposits after intravenous injection of BL6 cells into mice. Each graph represents the mean and standard deviation of results obtained in 8 animals. In FIG. 6A the open bars depict the total number of lung colony deposits; the stippled bars depict the number of lung colonies with a diameter of greater than 1 mm; and the solid bars depict the number of lung colonies with a diameter of less than 1 mm. Bars 1-3 depict the number of deposits observed 14 days after injection. Bars 4-6 depict the number of lung colony deposits in animals that received BL6 cells and 1 minute later received 0.2 mg of N,N,N-trimethylsphingosine (TMS). […]
In FIG. 6B the number of lung colonies was determined 16 days after treatment, the treatment consisting of varying doses and routes of administration. […]
In FIG. 6C the dose responsiveness of BL6 metastatic potential to TMS is presented. […] Sixteen days after treatment, the mice were sacrificed, lungs opened and the number of colonies in the lungs were counted under a dissecting microscope.
The effectiveness of TMS in vivo is summarized in the graphs comprising FIG. 6. BL6 cells were injected into mice and metastatic deposits in the lung were assessed after various treatments including route and timing of administration.

[4] = test system: erythrocytes; experiment: erythrocyte metabolic activity under blood storage conditions; type: cell-based; conditions: in vitro, normal blood storage conditions
Excerpt: Similar results can be expected for leukocytes and platelets.

Row | SMILES | inhibition of thrombin- or ADP-induced platelet aggregation ([1]; thrombin or ADP, compared with TMS) | inhibition of cell growth [2] | dose responsiveness of lung tumor colonization ([3]; FIG. 6B, 6C) | suppression of lung colonization and tumor development ([3]; irrespective of route or timing, FIG. 6) | inhibition of ATP secretion associated with platelet aggregation [1] | inhibition of platelet aggregation [1] | ristocetin-induced platelet aggregation following incubation ([1]; exclusion of cytotoxicity on platelets) | erythrocyte metabolic activity [4]
1 | CCCCCCCCCCCCC/C=C/[C@@H](O)[C@H](CO)N(C)C [DMS, (4E)-N,N-dimethyl-D-erythro-sphingosine] | did not inhibit thrombin- or ADP-induced platelet aggregation as well as did TMS | – | – | – | – | – | – | –
2 | CCCCCCCCCCCCC/C=C/[C@@H](O)[C@H](CO)[N+](C)(C)C [TMS, N,N,N-trimethylsphingosine] | – | more effective than DMS and sphingosine; also recorded: BL6 cells were more sensitive to TMS treatment | distinct dose responsiveness | effective in suppressing lung colonization and tumor development | inhibited strongly | inhibited strongly; also recorded: inhibited platelet aggregation in a dose-responsive fashion | normal ristocetin-induced aggregation | retards erythrocyte metabolic activity
